Test system: retina exposed to laser (secondary retinal damage)
Assay: Retinal thickness analysis (Retinal Thickness Analyzer) after laser photocoagulation in a patient with AMD
Format: in vivo, human
Excerpt: In order to calculate the slope of retinal thickness, the thickness of the retina must be measured. In practicing the methods of the invention, it is preferred that the retinal thickness be measured in situ as compared to histologically. Retinal thickness may be measured using publicly available devices generally configured to image optical cross-sections of the retina, and to digitally process the cross-sections to result in a measurement of retinal thickness. One such device used to practice the methods of the invention is the Retinal Thickness Analyzer ([…] Technology, Ltd., […] Zion, Israel) as disclosed in U.S. Pat. No. 6,267,477, entitled, “Three dimensional imaging apparatus and a method for use thereof”. Another device that may be used to measure retinal thickness in the methods of the invention is the Optical Coherence Tomography (OCT) Scanner (Humphrey Instruments, Inc., San Leandro, Calif.) and as described in U.S. Pat. No. 5,491,524, entitled, “Optical coherence tomography corneal mapping apparatus”. Another device that may be used to measure retinal thickness in practicing the methods of the invention is the Heidelberg Retina Tomograph (HRT; Heidelberg Engineering GmbH, Heidelberg, Germany) and as described in U.S. Pat. No. 5,170,276, entitled, “Apparatus for imaging an object”. The images obtained by such devices can then be examined, and the slope of retinal thickness measured. The slope of retinal thickness may be calculated as a ratio by measuring the change in retinal thickness as a function of distance between two or more points of the retina near the lesion site. The human retina is approximately 200-250 μm thick. Using the devices described above, it is possible to optically cross-section the retina in 20 μm increments. If the retinal thickness changes by 200 μm over a distance of 20 μm, the corresponding slope of retinal thickness would be 10. Similarly, if the retinal thickness changes 200 μm over a distance of 2 mm, the corresponding slope would be 0.1. In the foregoing examples, a slope of 10 indicates the retinal damage is less than the retinal damage where the slope of damage is 0.1. Persons skilled in the art will appreciate that the slope of retinal thickness may be calculated over any number of distances, and that the smallest distance is only limited by the resolution of the devices used to practice the methods of the invention. A person presents with blurred vision in their right eye with particular distorted images near the middle of their visual field. An ophthalmologist conducts an eye exam. […] The ophthalmologist detects the presence of an abnormal amount of soft drusen. A diagnosis of age-related macular degeneration (AMD) is made. […]

Structure (SMILES): CC12CC3CC(C)(C1)CC(N)(C3)C2 [memantine]
- secondary damage by retinal thickness analysis (memantine 0.25% w/v topically prior to laser treatment, after the surgery): little secondary damage
- visual impairment on additional laser treatments (memantine 0.25% w/v topically, continued laser treatments): without significant visual impairment
- change in retinal thickness (over a distance of about 40 μm, memantine 0.25% w/v topically prior to laser treatment, twenty-one days after laser surgery): 200 μm
- slope of damage (slope of retinal thickness) (person with AMD, memantine 0.25% w/v topically prior to laser photocoagulation, scan twenty-one days after laser surgery): approximately 8

Reference: US6761694B2, “Methods for measuring retinal damage” (Allergan, Inc., priority 2001, dated 2004)
